# Measurements taken from patent US9000159B2 (Glenmark Pharmaceuticals, S.A., priority 2009, dated 2015).
# Molecular target: T1, Human TRPA1 (Homo sapiens, UniProt O75762)
# T1 construct: expressed in transfected cells; host or cells: CHO cells
# Experiment: 45Calcium uptake assay: inhibition of AITC induced cellular uptake of radioactive calcium
# Assay type: cell-based
# Conditions: AITC (30 μM) induced 45Ca uptake, Human TRPA1 expressing CHO cells; for inhibition at 1 µM: 1.0 μM test compound, read-out: Percentage inhibition at 1.0 μM; for inhibition at 10 µM: 10.0 μM test compound, read-out: Percentage inhibition at 10.0 μM; for IC50: read-out: Human IC50 value (range)
# From the text: The illustrative examples of the present invention are screened for TRPA1 activity according to a modified procedure described in (a) Tóth, A. et al., Life Sciences, 2003, 73, 487-498. (b) McNamara C, R. et al., Proc. Natl. Acad. Sci. U.S.A., 2007, 104, 13525-13530. The screening of the compounds can be carried out by other methods and procedures known to persons skilled in the art.
# Screening for TRPA1 Antagonist Using the ^45Calcium Uptake Assay
# The inhibition of TRPA1 receptor activation was measured as inhibition of allyl isothiocyanate (AITC) induced cellular uptake of radioactive calcium. Test compounds were dissolved in DMSO to prepare 10 mM stock solution and then diluted using plain medium with 0.1% BSA and 1.8 mM CaCl2 to get desired concentration. Final concentration of DMSO in the reaction was 0.5% (v/v). Human TRPA1 expressing CHO cells were grown in F-12 DMEM medium with 10% FBS, 1% penicillin-streptomycin solution, 400 μg/ml of G-418. Cells were seeded 24 h prior to the assay in 96 well plates so as to get ˜50,000 cells per well on the day of experiment. Cells were treated with test compounds for 10 min followed by addition of AITC at a final concentration of 30 μM and 5 μCi/ml ^45Ca^+2 for 3 min. Cells were washed and lysed using buffer containing 1% Triton X-100, 0.1% deoxycholate and 0.1% SDS. Radioactivity in the lysate was measured in Packard Top count after addition of liquid scintillant. Concentration response curves were plotted as a % of maximal response obtained in the absence of test antagonist. IC50 value was calculated from concentration response curve by nonlinear regression analysis using GraphPad PRISM software.
# T1 sequence (O75762 whole entry): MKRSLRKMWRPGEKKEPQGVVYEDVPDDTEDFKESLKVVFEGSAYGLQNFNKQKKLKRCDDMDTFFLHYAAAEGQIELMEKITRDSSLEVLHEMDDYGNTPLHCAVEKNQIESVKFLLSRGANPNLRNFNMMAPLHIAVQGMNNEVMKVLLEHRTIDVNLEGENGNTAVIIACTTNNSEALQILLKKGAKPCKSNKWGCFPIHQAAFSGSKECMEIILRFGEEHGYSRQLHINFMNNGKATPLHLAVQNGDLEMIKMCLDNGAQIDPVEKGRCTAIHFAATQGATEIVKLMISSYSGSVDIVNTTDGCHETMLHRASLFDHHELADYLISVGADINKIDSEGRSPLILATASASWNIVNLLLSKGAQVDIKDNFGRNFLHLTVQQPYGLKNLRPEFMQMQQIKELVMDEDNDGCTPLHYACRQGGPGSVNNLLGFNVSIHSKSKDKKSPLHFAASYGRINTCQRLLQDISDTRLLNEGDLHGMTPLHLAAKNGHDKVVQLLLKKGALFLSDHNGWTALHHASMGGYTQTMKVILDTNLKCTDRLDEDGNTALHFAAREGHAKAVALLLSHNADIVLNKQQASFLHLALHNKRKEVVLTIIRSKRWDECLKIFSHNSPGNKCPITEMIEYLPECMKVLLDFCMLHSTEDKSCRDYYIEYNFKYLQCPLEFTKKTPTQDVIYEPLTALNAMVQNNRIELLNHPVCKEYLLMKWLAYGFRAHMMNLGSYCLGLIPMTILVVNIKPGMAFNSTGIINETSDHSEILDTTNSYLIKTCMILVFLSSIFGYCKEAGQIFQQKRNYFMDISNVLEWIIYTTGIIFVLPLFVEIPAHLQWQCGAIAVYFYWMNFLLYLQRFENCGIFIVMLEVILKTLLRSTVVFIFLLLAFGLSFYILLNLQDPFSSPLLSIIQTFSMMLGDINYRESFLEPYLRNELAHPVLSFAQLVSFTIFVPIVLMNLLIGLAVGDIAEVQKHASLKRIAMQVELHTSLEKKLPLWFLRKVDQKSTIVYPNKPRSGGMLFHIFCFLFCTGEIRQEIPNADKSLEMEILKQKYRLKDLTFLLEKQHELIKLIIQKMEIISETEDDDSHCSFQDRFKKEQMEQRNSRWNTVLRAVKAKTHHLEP
SMILES,inhibition at 1 µM [%],inhibition at 10 µM [%],IC50 [nM]
"CC(C)Cc1ccc(-c2csc(NC(=O)Cc3c4c(=O)n(C)c(=O)n(C)c4nn3C)n2)cc1 [Example 45, N-[4-(4-Isobutylphenyl)-1,3-thiazol-2-yl]-2-(2,5,7-trimethyl-4,6-dioxo-4,5,6,7-tetrahydro-2H-pyrazolo[3,4-d]pyrimidin-3-yl)acetamide]",93.5,98.9,50 to 100
"Cn1nc2c(c1CC(=O)Nc1nc(-c3ccc(C(F)(F)F)cc3)cs1)c(=O)n(C)c(=O)n2C [Example 47, N-{4-[4-(Trifluoromethyl)phenyl]-1,3-thiazol-2-yl}-2-(2,5,7-trimethyl-4,6-dioxo-4,5,6,7-tetrahydro-2H-pyrazolo[3,4-d]pyrimidin-3-yl)acetamide]",99,99.5,< 50
"Cn1nc2c(c1CC(=O)Nc1nc(-c3cccc(C(F)(F)F)c3)cs1)c(=O)n(C)c(=O)n2C [Example 48, N-{4-[3-(Trifluoromethyl)phenyl]-1,3-thiazol-2-yl}-2-(2,5,7-trimethyl-4,6-dioxo-4,5,6,7-tetrahydro-2H-pyrazolo[3,4-d]pyrimidin-3-yl)acetamide]",92.8,97.5,50 to 100
"Cn1nc2c(c1CC(=O)Nc1nc(-c3cccc(OC(F)(F)F)c3)cs1)c(=O)n(C)c(=O)n2C [Example 49, N-{4-[3-(Trifluoromethoxy)phenyl]-1,3-thiazol-2-yl}-2-(2,5,7-trimethyl-4,6-dioxo-4,5,6,7-tetrahydro-2H-pyrazolo[3,4-d]pyrimidin-3-yl)acetamide]",52.3,88.5,–
"Cn1nc2c(c1CC(=O)Nc1nc(-c3cc(F)cc(F)c3)cs1)c(=O)n(C)c(=O)n2C [Example 52, N-[4-(3,5-Difluorophenyl)-1,3-thiazol-2-yl]-2-(2,5,7-trimethyl-4,6-dioxo-4,5,6,7-tetrahydro-2H-pyrazolo[3,4-d]pyrimidin-3-yl)acetamide]",37.8,64.8,–

# Second part, the compound after the results:
inhibition at 1 µM [%],inhibition at 10 µM [%],IC50 [nM],SMILES
27.1,77,–,"Cn1c(=O)c2c(CC(=O)Nc3nc(-c4cc(F)c(OCC(F)(F)F)c(F)c4)cs3)cn(C)c2n(C)c1=O [Example 44, N-{4-[3,5-Difluoro-4-(2,2,2-trifluoroethoxy)phenyl]-1,3-thiazol-2-yl}-2-(1,3,7-trimethyl-2,4-dioxo-2,3,4,7-tetrahydro-1H-pyrrolo[2,3-d]pyrimidin-5-yl)acetamide]"
89.3,96.6,> 100,"Cn1nc2c(c1CC(=O)Nc1nc(-c3ccc(Cl)cc3)cs1)c(=O)n(C)c(=O)n2C [Example 46, N-[4-(4-Chlorophenyl)-1,3-thiazol-2-yl]-2-(2,5,7-trimethyl-4,6-dioxo-4,5,6,7-tetrahydro-2H-pyrazolo[3,4-d]pyrimidin-3-yl)acetamide]"
0,19.8,–,"Cn1nc2c(c1CC(=O)Nc1nc(-c3ccc(F)cc3F)cs1)c(=O)n(C)c(=O)n2C [Example 50, N-[4-(2,4-Difluorophenyl)-1,3-thiazol-2-yl]-2-(2,5,7-trimethyl-4,6-dioxo-4,5,6,7-tetrahydro-2H-pyrazolo[3,4-d]pyrimidin-3-yl)acetamide]"
57.5,79.7,–,"Cn1nc2c(c1CC(=O)Nc1nc(-c3ccc(F)c(F)c3)cs1)c(=O)n(C)c(=O)n2C [Example 51, N-[4-(3,4-Difluorophenyl)-1,3-thiazol-2-yl]-2-(2,5,7-trimethyl-4,6-dioxo-4,5,6,7-tetrahydro-2H-pyrazolo[3,4-d]pyrimidin-3-yl)acetamide]"
97.2,98.6,< 50,"Cn1nc2c(c1CC(=O)Nc1nc(-c3ccc(F)c(C(F)(F)F)c3)cs1)c(=O)n(C)c(=O)n2C [Example 53, N-{4-[4-Fluoro-3-(trifluoromethyl)phenyl]-1,3-thiazol-2-yl}-2-(2,5,7-trimethyl-4,6-dioxo-4,5,6,7-tetrahydro-2H-pyrazolo[3,4-d]pyrimidin-3-yl)acetamide]"
